Results taken from patent US7307079B2, “1,3,5-Triazine derivatives as ligands for human adenosine-A3 receptors” (Solvay Pharmaceuticals, B.V., priority 2002, dated 2007).

Target: T1, human adenosine-A3 receptor (Homo sapiens, UniProt P0DMS8)
T1 construct: expressed in transfected cells; membrane preparations
T1 sequence (P0DMS8 1-318): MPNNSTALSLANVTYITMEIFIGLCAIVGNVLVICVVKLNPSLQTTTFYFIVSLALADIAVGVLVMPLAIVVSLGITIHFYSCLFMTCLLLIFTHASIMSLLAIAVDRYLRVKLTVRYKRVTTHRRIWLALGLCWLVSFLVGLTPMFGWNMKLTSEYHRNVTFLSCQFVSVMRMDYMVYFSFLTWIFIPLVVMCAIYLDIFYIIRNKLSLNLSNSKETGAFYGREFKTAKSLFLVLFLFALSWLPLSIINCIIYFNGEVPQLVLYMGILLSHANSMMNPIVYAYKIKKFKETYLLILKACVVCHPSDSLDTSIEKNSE
Experiment: Receptor binding to human adenosine-A3 receptors ([125I]-AB-MECA displacement, HEK 293 membranes)
Protocol: Receptor Binding to Human Adenosine-A3 Receptors
Affinity of the compounds for human adenosine-A3 receptors was determined using the receptor binding assay described by C. A. Salvatore et al.: Molecular cloning and characterization of the human A3 adenosine receptor, Proc. Natl. Acad. Sci. USA, 90, 10365-10369, 1993. Briefly, membrane preparations were obtained from human recombinant (HEK 293) cells in which the human adenosine-A3 receptor was stably expressed. Membranes were incubated at 22° C. for 90 minutes with [^125l]-AB-MECA in the absence or presence of testcompounds in a concentration range from 10 μM down to 0.1 nM, diluted in a suitable buffer. Separation of bound radioactivity from free was done by filtration through Packard GF/B glass fiber filters with several washings with ice-cold buffer using a Packard cell harvester. Bound radioactivity was measured with a scintillation counter (Topcount, Packard) using a liquid scintillation cocktail (Microscint 0, Packard). Measured radioactivity was plotted against the concentration of the displacing test compound and displacement curves were calculated by four-parameter logistic regression, resulting in IC50 values, i.e. that concentration of displacing compound by which 50% of the radioligand is displaced. […]

Ki ([125I]-AB-MECA, membranes of HEK 293 cells expressing human A3, 22° C., 90 minutes, read-out: affinity for human adenosine-A3 receptors pKi (converted)): 1 nM
affinity for human adenosine-A3 receptors (in words) (binding assay, result stated in words): highly active
Structure (SMILES): C[C@@H](Nc1nc(Cl)nc(Nc2ccc3c(c2)OCO3)n1)[C@@H](O)c1ccccc1 [formula (9), (1S,2R)-2-{[4-chloro-6-(3,4-methylenedioxy-phenylamino)-[1,3,5]triazin-2-yl]-amino}-1-phenyl-propan-1-ol]
